Measured values: patent publication US12128132B2, “Drug delivery formulations” (MedinCell S.A., priority 2019, dated 2024)

Assay: Stability of risperidone stock solution
Format: physicochemical
Details: 200 μg/mL in acetonitrile/H2O (50/50 v/v), stored at +2-8° C.
Method: Starting from this mother solution, calibration standards were prepared by dilution in the same sample solvent mixture as above. Six dilutions were performed to obtain calibration standards of 1, 5, 10, 25, 50, 100 and 200 μg/mL.

Cc1nc2n(c(=O)c1CCN1CCC(c3noc4cc(F)ccc34)CC1)CCCC2 [risperidone]
stability of stock solution: ≥ 5 months
